{"source": "patent US20030118577A1", "about": "“Use of analogues of superoxide dismutase for treating hepatocellular insufficiencies” (priority 2000, published 2003)", "test_system": "acute hepatic insufficiency induced by anti-Fas antibodies", "assay": "Survival of mice after injection of anti-Fas antibody (fulminant hepatitis)", "format": "in vivo", "conditions": "at 24 hours; 6 μg anti-Fas antibody iv; MnTBAP 10 mg/kg 2 hours beforehand; FIG. 3", "protocol": "The injection of these antibodies into mice causes fulminant hepatitis due to a massive apoptosis of the hepatocytes, causing the death of the mice within a few hours following the injection [OGASAWARA et al., Nature, 364, pp. 806-809, (1993); NAGATA, Prog. Mol. Subcell. Biol., 16, pp. 87-103, (1996)].\n27 control mice received, by intravenous injection, 6 μg of an anti-Fas monoclonal antibody (clone J02; PHARMINGEN) diluted in 100 μl of physiological saline; a second group of 15 mice received the same treatment, preceded by the administration, 2 hours beforehand, of 10 mg/kg of MnTBAP, as described in Example 1 above; a control group received MnTBAP alone (10 mg/kg)."}
{"smiles": "O=C(O)c1ccc(-c2c3nc(c(-c4ccc(C(=O)O)cc4)c4ccc([n-]4)c(-c4ccc(C(=O)O)cc4)c4nc(c(-c5ccc(C(=O)O)cc5)c5ccc2[n-]5)C=C4)C=C3)cc1.[Mn+3]", "note": "[MnTBAP, Mn(III) tetrakis(5,10,15,20-benzoic acid)porphyrin]", "values": [{"measurement": "rate of survival", "result": "~60", "unit": "%"}]}
